Data: patent publication US10751293B2, “Polymer fiber scaffolds and uses thereof” (CASE WESTERN RESERVE UNIVERSITY, priority 2015, dated 2020)

Assay: thermogravimetric analysis (TGA), thermal stability

With `Clc1ccccc1C(c1ccccc1)(c1ccccc1)n1ccnc1` [Clotrimazole] the “stability at the processing temperature” value (180° C.) was “stable” and the “temperature above which decomposition begins” value (non-isothermal mode) was “above 190 °C”.
